The results in this text go back to patent EP4667483A1, “HUMAN TRANSFERRIN RECEPTOR-BINDING PEPTIDE” (JCR Pharmaceuticals Co., Ltd., priority 2023, dated 2024).

The target in the assay is human transferrin receptor (hTfR) (Homo sapiens, UniProt P02786). The assay can be described thus: SPR measurement under pH 7.4 conditions (Biacore T200, CM3 chip, hTfR captured by His Tag antibody). The format is binding. Particulars: SPR, pH 7.4; Table 2-1-2; read-out: hTfR SPR pH7.4 KD(n M). The protocol: Molecular interactions between the synthesized peptides and the transferrin receptor (hTfR) were evaluated by surface plasmon resonance (SPR) using the following method. The specific assay procedure is described below.
Sequence of human transferrin receptor (hTfR) (P02786 whole entry): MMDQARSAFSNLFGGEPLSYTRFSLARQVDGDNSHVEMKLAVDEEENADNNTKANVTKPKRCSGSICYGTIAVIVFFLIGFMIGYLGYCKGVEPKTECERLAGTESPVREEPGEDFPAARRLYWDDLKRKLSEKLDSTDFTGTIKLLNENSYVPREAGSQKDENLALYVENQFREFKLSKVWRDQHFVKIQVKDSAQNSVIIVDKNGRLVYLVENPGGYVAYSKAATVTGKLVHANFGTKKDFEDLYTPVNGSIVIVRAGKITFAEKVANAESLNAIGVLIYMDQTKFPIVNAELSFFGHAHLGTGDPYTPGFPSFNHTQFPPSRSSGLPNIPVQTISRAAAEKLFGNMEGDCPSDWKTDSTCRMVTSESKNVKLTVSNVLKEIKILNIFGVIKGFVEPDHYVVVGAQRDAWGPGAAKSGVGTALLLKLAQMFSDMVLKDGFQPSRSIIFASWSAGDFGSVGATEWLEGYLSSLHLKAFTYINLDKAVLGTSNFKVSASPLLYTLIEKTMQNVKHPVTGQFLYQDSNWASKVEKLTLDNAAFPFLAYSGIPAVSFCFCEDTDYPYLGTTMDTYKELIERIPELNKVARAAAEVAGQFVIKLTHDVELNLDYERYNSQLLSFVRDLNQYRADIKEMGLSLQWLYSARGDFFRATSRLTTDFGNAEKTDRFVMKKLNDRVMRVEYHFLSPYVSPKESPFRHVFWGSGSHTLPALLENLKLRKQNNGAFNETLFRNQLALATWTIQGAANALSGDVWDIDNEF
An CM3 sensor chip (Cytiva) was inserted into BiacoreT200 (Cytiva), then a priming operation was performed three times by using a running buffer: HBS-P+, pH7.4 (Cytiva), and an equilibrium state was created at a flow rate of […]. Ligand immobilization was performed at a flow rate of 10 µL/min. After mixing 50 µL each of 60 mM EDC solution (Cytiva) and 650 mM NHS solution (Cytiva), the mixture was reacted at a flow rate of 10 µL/min for 420 seconds. 150 µL of […] THE His Tag Antibody, mAb, Mouse (GenScript) was prepared by diluting with 10 mM acetic acid solution (pH 5.0), and reacted at a flow rate of 10 µL/ min for 420 seconds. Then, THE His Tag Antibody, mAb, Mouse (GenScript) was immobilized as a capture molecule on the CM3 sensor chip. After immobilization, capping was performed by reacting with 1.0 M ethanolamine solution (Cytiva) at a flow rate of 10 µL/min for 420 seconds. 300 nM hTfR was captured at a flow rate of 10 µL/min, a peptide solution prepared at 10 mM in DMSO was diluted with running buffer to achieve a final concentration of 10 µM, and peptide solutions at 250 nM, 125 nM, 62.5 nM, 25 nM, and 12.5 nM were prepared. . The peptide samples were reacted at a flow late of 30 µL/min for 120 seconds, followed by dissociation for 600 seconds. The kinetics of the peptide against hTfR was obtained by SPR measurement for the above samples.
The kinetic evaluation model was single-cycle kinetics, and curve fitting was performed using Biacore T200 Evaluation Software Version 3.0 (Cytiva). The binding of the peptide to hTfR was evaluated by performing curve fitting on the obtained sensorgram by the least squares method and obtaining the kon value, the koff value, and the KD value.

Numbered stars: 1 amine (or outer) side, 2 acyl side, 3 side chain; on linkers, the order of the positions; unused ones are H or OH. Bridge positions count the residues as written; N and C are the ends. Square brackets hold non-standard residues; d marks the D form. Side chains are listed from the residue outwards. Peptide text beside a SMILES is read from it. * marks the point of attachment. Trp(1-CH2COOH) = N[C@@H](Cc1cn(CC(=O)O)c2ccccc12)C(=O)O; CH2CON(CH2CH2)2NCH2COOH = O=C(O)CN1CCN(C(=O)C*)CC1; Nle(6-morpholino) = N[C@@H](CCCCN1CCOCC1)C(=O)O; Trp(7-aza) = N[C@@H](Cc1c[nH]c2ncccc12)C(=O)O; NH(CH2CH2O)8Me = COCCOCCOCCOCCOCCOCCOCCOCCN*; NMePhe(3-Cl) = CN[C@@H](Cc1cccc(Cl)c1)C(=O)O; Piperazinyl(4-CH2COOH) = O=C(O)CN1CCN(*)CC1; 3Pal(6-NH2) = Nc1ccc(C[C@H](N)C(=O)O)cn1; NMeY = CN[C@@H](Cc1ccc(O)cc1)C(=O)O; 4Pal = N[C@@H](Cc1ccncc1)C(=O)O; PEG4 = NCCOCCOCCOCCOCCC(=O)O; CO = O=C([*:1])[*:2]

Take `CC[C@H](C)[C@@H]1NC(=O)[C@H](Cc2ccc(OCC(=O)N3CCN(CC(=O)O)CC3)cc2)NC(=O)[C@H](Cc2ccc(N)nc2)NC(=O)[C@H](CC(N)=O)NC(=O)[C@H](Cc2c[nH]c3ncccc23)NC(=O)[C@H](C(C)C)NC(=O)[C@H](Cc2cccc(Cl)c2)N(C)C(=O)[C@H](C(C)C)NC(=O)[C@H](C)NC(=O)CSC[C@@H](C(=O)NCCOCCOCCOCCOCCC(N)=O)NC(=O)[C@H](Cc2ccc(O)cc2)N(C)C(=O)[C@H](Cc2ccncc2)NC(=O)[C@H](CCCCN2CCOCC2)NC(=O)[C@H](CCC(=O)NCCOCCOCCOCCOCCOCCOCCOCCOC)NC(=O)[C@H]([C@@H](C)CC)NC1=O` [compound 154] ({CH2CO}-AV[NMePhe(3-Cl)]V[Trp(7-aza)]N[3Pal(6-NH2)]Y(CH2CON(CH2CH2)2NCH2COOH)IIE(NH(CH2CH2O)8Me)[Nle(6-morpholino)][4Pal][NMeY]C[PEG4]-NH2; thioether N-15): the Kd was found to be 32.6 nM.

Regarding `CC[C@H](C)[C@@H]1NC(=O)[C@H](Cc2ccc(OCC(=O)N3CCN(CC(=O)O)CC3)cc2)NC(=O)[C@H](Cc2ccc(N)nc2)NC(=O)[C@H](CC(N)=O)NC(=O)[C@H](Cc2cn(CC(=O)O)c3ccccc23)NC(=O)[C@H](C(C)C)NC(=O)[C@H](Cc2cccc(Cl)c2)N(C)C(=O)[C@H](C(C)C)NC(=O)[C@H](C)NC(=O)CSC[C@@H](C(=O)NCCOCCOCCOCCOCCC(N)=O)NC(=O)[C@H](Cc2ccc(O)cc2)N(C)C(=O)[C@H](Cc2ccncc2)NC(=O)[C@H](CCCCN2CCOCC2)NC(=O)[C@H](CCC(=O)NCCOCCOCCOCCOCCOCCOCCOCCOC)NC(=O)[C@H]([C@@H](C)CC)NC1=O` [compound 155] ({CH2CO}-AV[NMePhe(3-Cl)]V[Trp(1-CH2COOH)]N[3Pal(6-NH2)]Y(CH2CON(CH2CH2)2NCH2COOH)IIE(NH(CH2CH2O)8Me)[Nle(6-morpholino)][4Pal][NMeY]C[PEG4]-NH2; thioether N-15), the dissociation constant Kd stood at 28.4 nM.

With `CC[C@H](C)[C@@H]1NC(=O)[C@H](Cc2ccc(OCC(=O)N3CCN(CC(=O)O)CC3)cc2)NC(=O)[C@H](Cc2ccc(N)nc2)NC(=O)[C@H](CC(N)=O)NC(=O)[C@H](Cc2c[nH]c3ncccc23)NC(=O)[C@H](C(C)C)NC(=O)[C@H](Cc2cccc(Cl)c2)N(C)C(=O)[C@H](C(C)C)NC(=O)[C@H](C)NC(=O)CSC[C@@H](C(=O)NCCOCCOCCOCCOCCC(N)=O)NC(=O)[C@H](Cc2ccc(O)cc2)N(C)C(=O)[C@H](Cc2ccncc2)NC(=O)[C@H](CCCNC(=N)N)NC(=O)[C@H](CCCCNC(=O)N2CCN(CC(=O)O)CC2)NC(=O)[C@H]([C@@H](C)CC)NC1=O` [compound 156] ({CH2CO}-AV[NMePhe(3-Cl)]V[Trp(7-aza)]N[3Pal(6-NH2)]Y(CH2CON(CH2CH2)2NCH2COOH)IIK([CO-Piperazinyl(4-CH2COOH)])R[4Pal][NMeY]C[PEG4]-NH2; thioether N-15), the Kd is 16 nM.

Turning to `CC[C@H](C)[C@@H]1NC(=O)[C@H](Cc2ccc(OCC(=O)N3CCN(CC(=O)O)CC3)cc2)NC(=O)[C@H](Cc2ccc(N)nc2)NC(=O)[C@H](CC(N)=O)NC(=O)[C@H](Cc2c[nH]c3ncccc23)NC(=O)[C@H](C(C)C)NC(=O)[C@H](Cc2cccc(Cl)c2)N(C)C(=O)[C@H](C(C)C)NC(=O)[C@H](C)NC(=O)CSC[C@@H](C(=O)NCCOCCOCCOCCOCCC(N)=O)NC(=O)[C@H](Cc2ccc(O)cc2)N(C)C(=O)[C@H](Cc2ccncc2)NC(=O)[C@H](CCCCN2CCOCC2)NC(=O)[C@H](CCCCNC(=O)N2CCN(CC(=O)O)CC2)NC(=O)[C@H]([C@@H](C)CC)NC1=O` [compound 157] ({CH2CO}-AV[NMePhe(3-Cl)]V[Trp(7-aza)]N[3Pal(6-NH2)]Y(CH2CON(CH2CH2)2NCH2COOH)IIK([CO-Piperazinyl(4-CH2COOH)])[Nle(6-morpholino)][4Pal][NMeY]C[PEG4]-NH2; thioether N-15), the Kd was determined as 15 nM.

Turning to `CC[C@H](C)[C@@H]1NC(=O)[C@H](Cc2ccc(OCC(=O)N3CCN(CC(=O)O)CC3)cc2)NC(=O)[C@H](Cc2ccc(N)nc2)NC(=O)[C@H](CC(N)=O)NC(=O)[C@H](Cc2cn(CC(=O)O)c3ccccc23)NC(=O)[C@H](C(C)C)NC(=O)[C@H](Cc2cccc(Cl)c2)N(C)C(=O)[C@H](C(C)C)NC(=O)[C@H](C)NC(=O)CSC[C@@H](C(=O)NCCOCCOCCOCCOCCC(N)=O)NC(=O)[C@H](Cc2ccc(O)cc2)N(C)C(=O)[C@H](Cc2ccncc2)NC(=O)[C@H](CCCNC(=N)N)NC(=O)[C@H](CCCCNC(=O)N2CCN(CC(=O)O)CC2)NC(=O)[C@H]([C@@H](C)CC)NC1=O` [compound 158] ({CH2CO}-AV[NMePhe(3-Cl)]V[Trp(1-CH2COOH)]N[3Pal(6-NH2)]Y(CH2CON(CH2CH2)2NCH2COOH)IIK([CO-Piperazinyl(4-CH2COOH)])R[4Pal][NMeY]C[PEG4]-NH2; thioether N-15), the dissociation constant Kd was found to be 20.2 nM.
